System: Bacillus anthracis spores
Format: cell-based, Bacillus anthracis (Sterne)

Row | SMILES | % killing [%] | Spore colonies | reduction in bacterial survival | reduction of bacterial survival | inhibition of B. anthracis survival | reduction in survival for B. anthracis
1 | CCCCCCCCCCCC[N+](C)(C)C.[Br-] [DTAB, dodecyltrimethylammonium bromide] | 40 | 84 ± 4 | approximately 40% | approximately 40% | – | –
2 | CN(C)c1ccc2nc3ccc(=[N+](C)C)cc-3sc2c1 [MB, methylene blue] | – | – | – | – | no inhibition | 75%
3 | O=C1OC2(c3cc(I)c(O)c(I)c3Oc3c2cc(I)c(O)c3I)c2c(Cl)c(Cl)c(Cl)c(Cl)c21 [RBL, Rose Bengal lactone] | – | – | – | – | – | approximately 40%

From patent US20050148254A1, “Light-activated biocidal polyelectrolytes” (priority 2003, published 2005)
